# Assay results taken from US10443018B2, “Phenyl based compounds substituted with aldehyde moieties and their use in perfumery” (GIVAUDAN SA, priority 2014, dated 2019).
# Key:
# [1] = system: Cryopreserved hepatocytes from male rats (Sprague Dawley); experiment: In vitro metabolism study in rat hepatocytes in suspension (GC-MS); conditions: for Residual conc.: male, Sprague Dawley, rat, 4 h, 100 μM
# Description: In order to study in vitro metabolism in rat hepatocytes, Lilial™ and compounds of the present invention may be incubated in the presence of rat hepatocytes in suspension. Reduction in the concentration of Lilial™ and the compounds of the present invention and formation of any of the corresponding benzoic acid derivatives may be analysed by GC-MS.
# Cryopreserved hepatocytes from male rats (Sprague Dawley; Lifetechnologies) were defrozen, washed in Cyropreserved Hepatocytes Recovery Medium (CHRM; Lifetechnologies) and suspended in Williams E Medium (WEM; Lifetechnologies). Lilial™, or the compounds of the present invention (final concentration: 100 μM) were added to the cells (1×10^6 viable cells/ml) and suspensions were incubated up to 4 hours at 37° C. on a shaker in duplicate. Metabolism of testosterone was monitored as positive control. Decrease of the test compounds and formation of the corresponding benzoic acid derivative was determined by GC-MS analysis of methyl esters formed after derivatisation with trimethylsilyl diazomethane (Sigma-Aldrich) in methanol. The test compounds react with diazomethane yielding a methyl ketone which was used for the quantification of Lilial™ and the compound of formula (I). Metabolism was stopped with ice cold 1 M HCl, samples were extracted with tert-butyl methyl ether (MTBE) and analysed by GC-MS. Incubations containing testosterone as control were also stopped with ice cold 1 M HCl, centrifuged to separate the cells, filtrated and the decrease of testosterone analysed by LC-MS.
# [2] = system: reproductive organs of dogs; conditions: dog, in vivo; cited from earlier work
# mice = conditions: mouse, in vivo; cited from earlier work
# [3] = system: reproductive organs of male rats; conditions: rat, in vivo; cited from earlier work
# primates = conditions: cited from earlier work
# guinea-pigs = conditions: guinea pig, in vivo; cited from earlier work
smiles,measurement,setting,value
Cc1ccc(CCC=O)c(CC(C)C)c1,Residual conc.,[1],0 µM
"Cc1cc(CCC=O)cc(CC(C)C)c1 [Compound 1, 3-(3-Isobutyl-5-methylphenyl)propanal]",Residual conc.,[1],1.5 µM
"CC(C=O)Cc1ccc(C(C)(C)C)cc1 (stereo not drawn) [Lilial, 3-(4-tert-butylphenyl)-2-methylpropanal]",toxic effects on the reproductive organs,[2],toxic effects
same,effects in toxicity studies,mice,No effects
same,toxic effects on the reproductive organs,[3],toxic effects
same,effects in toxicity studies,primates,No effects
same,Residual conc.,[1],0 µM
same,effects in toxicity studies,guinea-pigs,No effects
C[C@]12CC[C@H]3[C@@H](CCC4=CC(=O)CC[C@@]43C)[C@@H]1CC[C@@H]2O [testosterone],decrease of testosterone (positive control),"[1]; rat hepatocytes, LC-MS",rapid decrease
